Measured values taken from patent publication US8343475B2, “Small cationic antimicrobial peptides” (priority 2006, dated 2013).
Converted amounts (≈) assume the structure as drawn. Where two headings read alike, the source gives them in different places. Residues, ends and D or L forms follow the SMILES beside them.

Tests used:
Format in all cases: cell-based
[1] = system: Pseudomonas aeruginosa PAO1 strain H103; settings: PAO1
Method: The biological activity of the peptides can be determined by standard methods known to those of skill in the art, such as “minimal inhibitory concentration (MIC)” assay described in the present examples, whereby the lowest concentration at which no change in OD is observed for a given period of time is recorded as MIC.
(§1) Minimal inhibitory concentration (MIC) determination. The MIC of the peptides were measured using a modified broth microdilution method in Mueller Hinton (MH) medium (Wu M, Hancock R E W. 1999. Interaction of the cyclic antimicrobial cationic peptide bactenecin with the outer and cytoplasmic membrane. J Biol Chem 274, 29-35). Briefly, the peptides were dissolved and stored in glass vials. The assay was performed in sterile 96-well polypropylene microtitre plates were used. Serial dilutions of the peptides to be assayed were performed in 0.01% acetic acid (Fisher) containing 0.2% bovine serum albumin (Boehringer Mannheim GmbH) at 10× the desired final concentration. Ten microlitres of the 10× peptides were added to each well of a 96-well polypropylene plate containing 90 μl of MH media per well. Bacteria were added to the plate from an overnight culture at 2-7×10^5 colony forming units/ml and incubated over night at 37° C. The MIC was taken as the concentration at which no growth was observed.
(§2) Strains. For the killing assay a mini-Tn5-lux mutant in Pseudomonas aeruginosa H103 was used. The strain is called H1001 and contains a fliC::luxCDABE transcriptional fusion resulting in constitutive expression of luciferase. The bacterial strains used for the antimicrobial activity assays included Escherichia coli UB1005 (F-, nalA37, metB1), a wild-type Salmonella enterica ssp. typhimurium (S. typhimurium), wild-type Pseudomonas aeruginosa PAO1 strain H103, Enterococcus faecalis ATCC29212, Staphylococcus aureus ATCC25923, and a clinical isolate of Staphylococcus epidermidis obtained from Dr. D. Speert (Department of Medicine, University of British Columbia). Antifungal activity was tested using a lab isolate of Candida albicans obtained from Dr. B. Dill (Department of Microbiology and Immunology, University of British Columbia).

[2] = system: Staphylococcus aureus ATCC25923; settings: ATCC25923
Method: as §1, §2

Escherichia coli UB1005 = system: Escherichia coli UB1005
Method: as §1, §2

[3] = system: wild-type Salmonella enterica ssp. typhimurium
Method: as §1, §2

[4] = system: Enterococcus faecalis ATCC29212; settings: ATCC29212
Method: as §1, §2

[5] = system: lab isolate of Candida albicans; settings: lab isolate of
Method: as §1, §2

[6] = system: clinical isolate of Staphylococcus epidermidis; settings: clinical isolate of
Method: as §1, §2

[7] = indolicidin substitution variants (Table 4)

CC[C@H](C)[C@H](NC(=O)[C@H](CCCNC(=N)N)NC(=O)[C@H](Cc1ccccc1)NC(=O)[C@H](CCCNC(=N)N)NC(=O)[C@@H](N)CCCCN)C(=O)N[C@@H](CCCNC(=N)N)C(=O)N[C@H](C(=O)N[C@@H](CCCNC(=N)N)C(=O)N[C@H](C(=O)N[C@H](C(=O)N[C@@H](CCCNC(=N)N)C(=O)N[C@@H](CCCCN)C(N)=O)[C@@H](C)CC)C(C)C)C(C)C [HH15, KRFRIRVRVIRK] (H-KRFRIRVRVIRK-NH2)
MIC P. aerug [1]: 6 µg/mL (≈ 3.69 µM)
MIC S. aureus [2]: 6 µg/mL (≈ 3.69 µM)
MIC E. coli (Escherichia coli UB1005; UB1005): 1.6 µg/mL (≈ 0.984 µM)
MIC S. typhi [3]: 3 µg/mL (≈ 1.84 µM)
MIC E. faecalis [4]: 25 µg/mL (≈ 15.4 µM)
MIC C. albicans [5]: 12 µg/mL (≈ 7.38 µM)
MIC S. epi. [6]: 0.8 µg/mL (≈ 0.492 µM)

CC[C@H](C)[C@H](NC(=O)[C@H](CCCNC(=N)N)NC(=O)[C@H](Cc1c[nH]c2ccccc12)NC(=O)[C@H](CCCNC(=N)N)NC(=O)[C@@H](N)CCCCN)C(=O)N[C@@H](CCCNC(=N)N)C(=O)N[C@H](C(=O)N[C@@H](CCCNC(=N)N)C(=O)N[C@H](C(=O)N[C@H](C(=O)N[C@@H](CCCNC(=N)N)C(=O)N[C@@H](CCCCN)C(N)=O)[C@@H](C)CC)C(C)C)C(C)C [HH16, KRWRIRVRVIRK] (H-KRWRIRVRVIRK-NH2)
MIC P. aerug [1]: 3 µg/mL (≈ 1.8 µM)
MIC S. aureus [2]: 3 µg/mL (≈ 1.8 µM)
MIC E. coli (Escherichia coli UB1005; UB1005): 1.6 µg/mL (≈ 0.961 µM)
MIC S. typhi [3]: 3 µg/mL (≈ 1.8 µM)
MIC E. faecalis [4]: 12 µg/mL (≈ 7.21 µM)
MIC C. albicans [5]: 6 µg/mL (≈ 3.6 µM)
MIC S. epi. [6]: 0.8 µg/mL (≈ 0.48 µM)

CC[C@H](C)[C@H](NC(=O)[C@@H](N)CCCCN)C(=O)N[C@@H](Cc1c[nH]c2ccccc12)C(=O)N[C@H](C(=O)N[C@@H](CCCNC(=N)N)C(=O)N[C@@H](Cc1c[nH]c2ccccc12)C(=O)N[C@@H](CCCCN)C(N)=O)C(C)C [HH17, KIWVRWK-NH2] (H-KIWVRWK-NH2)
MIC P. aerug [1]: >50 µg/mL
MIC S. aureus [2]: >50 µg/mL
MIC E. coli (Escherichia coli UB1005; UB1005): 50 µg/mL (≈ 49.3 µM)
MIC S. typhi [3]: >50 µg/mL
MIC E. faecalis [4]: >50 µg/mL
MIC C. albicans [5]: >50 µg/mL
MIC S. epi. [6]: >50 µg/mL

CC[C@H](C)[C@H](N)C(=O)N[C@@H](CC(C)C)C(=O)N1CCC[C@H]1C(=O)N[C@@H](Cc1c[nH]c2ccccc12)C(=O)N[C@@H](CCCCN)C(=O)N[C@@H](CCCCN)C(=O)N1CCC[C@H]1C(=O)N[C@@H](Cc1c[nH]c2ccccc12)C(=O)N[C@@H](Cc1c[nH]c2ccccc12)C(=O)N1CCC[C@H]1C(=O)N[C@@H](Cc1c[nH]c2ccccc12)C(=O)N[C@@H](CCCNC(=N)N)C(=O)N[C@@H](CCCNC(=N)N)C(N)=O [HH113, ILPWKKPWWPWRR] (H-ILPWKKPWWPWRR-NH2; N-terminus assumed)
MIC P. aerug [1]: 31 µg/mL (≈ 16.8 µM)
MIC S. aureus [2]: 31 µg/mL (≈ 16.8 µM)
MIC E. coli (Escherichia coli UB1005; [7]): 31 µg/mL (≈ 16.8 µM)
MIC S. typhi [3]: 62 µg/mL (≈ 33.5 µM)
MIC E. faecalis [4]: 125 µg/mL (≈ 67.6 µM)
MIC C. albicans [5]: 62 µg/mL (≈ 33.5 µM)
MIC S. epi. [6]: 8 µg/mL (≈ 4.33 µM)

CC[C@H](C)[C@H](N)C(=O)N[C@@H](CC(C)C)C(=O)N[C@@H](CCCCN)C(=O)N[C@@H](Cc1c[nH]c2ccccc12)C(=O)N[C@@H](CCCCN)C(=O)N[C@@H](Cc1c[nH]c2ccccc12)C(=O)N1CCC[C@H]1C(=O)N[C@@H](Cc1c[nH]c2ccccc12)C(=O)N[C@@H](Cc1c[nH]c2ccccc12)C(=O)N[C@@H](CCCCN)C(=O)N[C@@H](Cc1c[nH]c2ccccc12)C(=O)N[C@@H](CCCNC(=N)N)C(=O)N[C@@H](CCCNC(=N)N)C(N)=O [HH970, ILKWKWPWWKWRR] (H-ILKWKWPWWKWRR-NH2; N-terminus assumed)
MIC P. aerug [1]: 16 µg/mL (≈ 8.13 µM)
MIC S. aureus [2]: 8 µg/mL (≈ 4.06 µM)
MIC E. coli (Escherichia coli UB1005; [7]): 8 µg/mL (≈ 4.06 µM)
MIC S. typhi [3]: 16 µg/mL (≈ 8.13 µM)
MIC E. faecalis [4]: 31 µg/mL (≈ 15.7 µM)
MIC C. albicans [5]: 16 µg/mL (≈ 8.13 µM)
MIC S. epi. [6]: 2 µg/mL (≈ 1.02 µM)

CC[C@H](C)[C@H](N)C(=O)N[C@@H](CC(C)C)C(=O)N1CCC[C@H]1C(=O)N[C@@H](Cc1c[nH]c2ccccc12)C(=O)N[C@@H](CCCCN)C(=O)N[C@@H](Cc1c[nH]c2ccccc12)C(=O)N[C@@H](CCCNC(=N)N)C(=O)N[C@@H](Cc1c[nH]c2ccccc12)C(=O)N[C@@H](Cc1c[nH]c2ccccc12)C(=O)N[C@@H](CCCCN)C(=O)N[C@@H](Cc1c[nH]c2ccccc12)C(=O)N[C@@H](CCCNC(=N)N)C(=O)N[C@@H](CCCNC(=N)N)C(N)=O [HH971, ILPWKWRWWKWRR] (H-ILPWKWRWWKWRR-NH2; N-terminus assumed)
MIC P. aerug [1]: 16 µg/mL (≈ 8.01 µM)
MIC S. aureus [2]: 8 µg/mL (≈ 4.01 µM)
MIC E. coli (Escherichia coli UB1005; [7]): 8 µg/mL (≈ 4.01 µM)
MIC S. typhi [3]: 16 µg/mL (≈ 8.01 µM)
MIC E. faecalis [4]: 31 µg/mL (≈ 15.5 µM)
MIC C. albicans [5]: 8 µg/mL (≈ 4.01 µM)
MIC S. epi. [6]: 2 µg/mL (≈ 1 µM)
